“Also recorded” adds a separate entry of the source.
Key:
[1] = Biodistribution in C57BL/6 mice; assay type: in vivo; details: for organ uptake: Blood / organ uptake: Brain / organ uptake: Femur / organ uptake: Heart / organ uptake: Intestine / organ uptake: Kidney / organ uptake: Liver / organ uptake: Lung / organ uptake: Muscle / organ uptake: Ovaries/testis / organ uptake: Spleen / organ uptake: Stomach / organ uptake: Thyroid / organ uptake: Urine: female C57BL/6 mice, i.v. 5.3-6.7 MBq, mean ± SD, n = 3
Method: (§1) Biodistribution studies were carried out on C57BL/6 mice weighing 19-21 g and Sprague Dawley rats weighing 400-560 g (Charles River Laboratories, Mass., USA). On the day of experimentation, the animals were anesthetized and maintained under isofluorane during the injection. A tail vein catheter was inserted, 5.3-6.7 MBq of 7-^123I-O-Nec-1 was administered to the mice and 3.1-3.3 MBq of 7-^123I-O-Nec-1 was injected into the rats. The animals were sacrificed at 1 hr or 2 hr post injection (p.i.) (n=3 per group). The heart, liver, kidney, muscle, femur, spleen, blood, brain, intestine, lung, stomach, urine/bladder, ovaries/testes and thyroid were extracted, weighed and analyzed for total gamma counts (Wizard 2 2480 Automatic Gamma Counter, Perkin Elmer). The tissue uptake was decay corrected, and the percentage of injected dose per gram (% ID/g) was calculated.

[2] = test system: atherosclerotic lesions in ApoE−/− mice; assay: Ex vivo autoradiography of aorta, en face and Oil Red O comparison; assay type: in vivo, mouse; details: for localization of the tracer in the aorta (in words): ApoE−/− mice with established lesions, 2 hours after i.v. injection, en face aortic arch; for correlation between lesion area measured by tracer autoradiography and ORO / en face (in words): ApoE−/− mice, ex vivo
From the text: Radiochemistry and ex vivo autoradiography study with ApoE^−/− mice. The tracer ^123I-Nec-1 (7-^123I-Nec-1) was synthesized by a Cu(I) catalyzed direct halogen exchange reaction with the precursor 7-Br-Nec-1 and Na^123I. Eight week-old female apolipoprotein E knockout (Apo E^−/−) mice were purchased from Charles River Laboratories and fed either a chow or western diet (TD.10885, Harlan Laboratories) for 2 months (total n=6 mice). 7-^123I-O-Nec-1 (37.0-55.5 MBq) was administrated intravenously into the mice under anesthetic. After 2 hr, the mice were euthanized and perfused with PBS followed by 10% formalin via left ventricle cannulation. Aorta was dissected from heart at the base using a dissecting microscope following removal of surrounding fat and connective tissue. En face specimens were immediately exposed to super resolution phosphor screens in an autoradiography cassette. After overnight exposure at room temperature, the screens were scanned with a Cyclone Phosphor Imager (Perkin Elmer, Downers Grove, Ill.). Images were analyzed using OptiQuant™ 5.0 software. The regions of interest (ROI) were drawn around the lesions on the aortic arch, and the counts in Digital Light Unit (DLU) and surface areas in mm^2 were measured. The DLU was converted to activity in μCi using a set of calibration standards with known activities, which were exposed and scanned on the same screen used for the aorta samples, as previously described (Zhao et al, 2007; Matter et al., 2006). The percentage injected dose (% ID) was calculated from dividing the activity (pCi) of the lesion by the injected activity. Activity density in % ID/m^2 was calculated and normalized by animal body weight to get % ID×kg/m^2. The areas of the lesions and the whole aortic arch in mm^2 were also recorded using the OptiQuant™ 5.0 software, and the percentage of lesion within the area of the aorta vessel wall was calculated.
Ex vivo autoradiography study with ApoE^−/− mice. Eight week-old female apolipoprotein E knockout (Apo E^−/−) mice were purchased from Charles River Laboratories (Charles River, Canada) and fed either a chow or western diet (TD.10885, Harlan Laboratories) for 2 months (n=3 per group). […] 7-^123I-O-Nec-1 (37.0-55.5 MBq) was administrated intravenously into the mice under anesthetic. After 2 hr, the mice were euthanized in a CO2 chamber. Using a Gilson Minipuls 2 peristaltic pump, the mice were perfused with 20 mL phosphate buffered saline (PBS) followed by 10 mL of 10% formalin via left ventricle cannulation. Perfusate was drained from a cut within the right atrium. Aorta was dissected from heart at the base using a dissecting microscope following removal of surrounding fat and connective tissue. For en face experiments aortic tissues were flattened by a longitudinal cut through one side of the aortic wall cutting through the carotids and the innominant artery until the aorta was split forming a Y-shaped structure.
The uptake and distribution of the tracer on aortic tissue was studied using digital autoradiography method. En face specimens were immediately exposed to super resolution phosphor screens in a Fisher Biotech autoradiography cassette. After overnight exposure at room temperature, the screens were scanned with a Cyclone Phosphor Imager (Perkin Elmer, Downers Grove, Ill.). Images were analyzed using OptiQuant™ 5.0 software. The regions of interest (ROI) were drawn around the lesions on the aortic arch, and the counts in Digital Light Unit (DLU) and surface areas in mm^2 were measured. The DLU was converted to activity in pCi using a set of calibration standards with known activities, which were exposed and scanned on the same screen used for the aorta samples. The percentage injected dose (% ID) was calculated from dividing the activity (pCi) of the lesion by the injected activity. Activity density in % ID/m^2 was calculated and normalized by animal body weight to get % ID×kg/m^2. […]

[3] = Biodistribution in Sprague-Dawley rats; assay type: in vivo
Method: as §1

Serum stability testing = assay type: in vitro ADME; details: 37° C., 24 hours, HPLC
Method: Serum stability testing of 7-^123I-O-Nec-1. Serum stability testing was carried out by mixing 25 μL of 7-^123I-O-Nec-1 (5) and 100 μL of rat serum at 37 ° C. for 24 hours. […] cold EtOH was added afterwards, and the mixture was centrifuged at 2500 ×g at 4° C. for 15 minutes to precipitate proteins. The supernatant was injected into HPLC.

[4] = male Sprague-Dawley rats, 2 hr p.i., i.v. 3.1-3.3 MBq, mean ± SD, n = 3

organ uptake: Blood ([1]; 1 hr p.i.): 3.149 ± 0.547 % ID/g
organ uptake: Brain ([1]; 1 hr p.i.): 0.429 ± 0.170 % ID/g
organ uptake: Femur ([1]; 1 hr p.i.): 1.167 ± 0.214 % ID/g
organ uptake: Heart ([1]; 1 hr p.i.): 1.868 ± 0.519 % ID/g
organ uptake: Intestine ([1]; 1 hr p.i.): 16.578 ± 1.224 % ID/g
organ uptake: Kidney ([1]; 1 hr p.i.): 4.296 ± 1.084 % ID/g
organ uptake: Liver ([1]; 1 hr p.i.): 4.030 ± 0.824 % ID/g
organ uptake: Lung ([1]; 1 hr p.i.): 3.248 ± 0.788 % ID/g
organ uptake: Muscle ([1]; 1 hr p.i.): 0.859 ± 0.278 % ID/g
organ uptake: Ovaries/testis ([1]; 1 hr p.i.): 2.349 ± 0.570 % ID/g
organ uptake: Spleen ([1]; 1 hr p.i.): 2.657 ± 0.390 % ID/g
organ uptake: Stomach ([1]; 1 hr p.i.): 19.294 ± 2.556 % ID/g
organ uptake: Thyroid ([1]; 1 hr p.i.): 7.344 ± 1.469 % ID/g
organ uptake: Urine ([1]; 1 hr p.i.): 103.153 ± 41.005 % ID/g
organ uptake: Blood ([1]; 2 hr p.i.): 3.136 ± 1.024 % ID/g
organ uptake: Brain ([1]; 2 hr p.i.): 0.640 ± 0.847 % ID/g
organ uptake: Femur ([1]; 2 hr p.i.): 1.189 ± 0.205 % ID/g
organ uptake: Heart ([1]; 2 hr p.i.): 1.405 ± 0.484 % ID/g
organ uptake: Intestine ([1]; 2 hr p.i.): 25.573 ± 19.206 % ID/g
organ uptake: Kidney ([1]; 2 hr p.i.): 3.841 ± 0.429 % ID/g
organ uptake: Liver ([1]; 2 hr p.i.): 2.562 ± 0.916 % ID/g
organ uptake: Lung ([1]; 2 hr p.i.): 2.975 ± 1.025 % ID/g
organ uptake: Muscle ([1]; 2 hr p.i.): 0.723 ± 0.307 % ID/g
organ uptake: Ovaries/testis ([1]; 2 hr p.i.): 1.462 ± 0.184 % ID/g
organ uptake: Spleen ([1]; 2 hr p.i.): 2.173 ± 0.728 % ID/g
organ uptake: Stomach ([1]; 2 hr p.i.): 25.711 ± 4.877 % ID/g
organ uptake: Thyroid ([1]; 2 hr p.i.): 18.387 ± 14.764 % ID/g
organ uptake: Urine ([1]; 2 hr p.i.): 80.627 ± 12.850 % ID/g
organ uptake: Blood [3, 4]: 0.153 ± 0.031 % ID/g
organ uptake: Brain [3, 4]: 0.023 ± 0.004 % ID/g
organ uptake: Femur [3, 4]: 0.052 ± 0.009 % ID/g
organ uptake: Heart [3, 4]: 0.098 ± 0.007 % ID/g
organ uptake: Intestine [3, 4]: 0.867 ± 0.062 % ID/g
organ uptake: Kidney [3, 4]: 0.236 ± 0.016 % ID/g
organ uptake: Liver [3, 4]: 0.226 ± 0.028 % ID/g
organ uptake: Lung [3, 4]: 0.143 ± 0.013 % ID/g
organ uptake: Muscle [3, 4]: 0.048 ± 0.005 % ID/g
organ uptake: Ovaries/testis [3, 4]: 0.089 ± 0.009 % ID/g
organ uptake: Spleen [3, 4]: 0.106 ± 0.009 % ID/g
organ uptake: Stomach [3, 4]: 1.685 ± 0.395 % ID/g
organ uptake: Thyroid [3, 4]: 1.407 ± 0.189 % ID/g
organ uptake: Urine [3, 4]: 2.513 ± 0.282 % ID/g
in vivo de-iodination (in words) ([3]; normal Sprague-Dawley rats): some degree of in vivo de-iodination
SMILES: CN1C(=O)NC(Cc2c[nH]c3c([123I])cccc23)C1=O (centres unmarked) [7-^123I-O-Nec-1, 5-((7-lodo (^123I)-1H-indol-3-yl)methyl)-3-methylimidazolidine-2,4-dione]
clearance of the tracer (in words) ([1]; biodistribution in C57BL/6 mice, i.v.): fast renal and liver/gastrointestinal clearance; also recorded: excreted rapidly from the renal system
in vivo de-iodination (in words) ([1]; normal C57BL/6 mice, thyroid and stomach uptake 1 hr to 2 hr p.i.): de-iodination over time; also recorded: some degree of in vivo de-iodination; also recorded: limited in vivo de-iodination
aortic lesion uptake in HFD-fed ApoE−/− mice versus chow-fed ApoE−/− and control mice (in words) ([2]; 4 month old mice, 37.0-55.5 MBq i.v., 2 hr, n=3 per group): significantly higher tracer uptake
lesion uptake in chow-fed ApoE−/− mice versus aortic arch uptake of control mice (in words) ([2]; 4 month old mice, 2 hr p.i., p=0.3): similar; also recorded: not statistically significant
localization of the tracer in the aorta (in words) ([2]; listed as 123I-Nec-1): primarily localized to areas of plaque accumulation
localization of the tracer in the aorta (in words) ([2]; listed as 123INec-1): specifically localizes to advanced atherosclerotic lesion areas
correlation between lesion area measured by tracer autoradiography and ORO / en face (in words) [2]: good correlation
correlation between lesion area measured by tracer autoradiography and ORO / en face (in words) ([2]; listed as 123I-Nec-1): significant correlation
clearance of the tracer (in words) ([3]; biodistribution in Sprague-Dawley rats, i.v., 2 hr p.i.): fast renal and liver/gastrointestinal clearance; also recorded: excreted rapidly from the renal system
stability in rat serum (Serum stability testing): stable in serum, no de-iodination or degradation was found; also recorded: stable in vitro in serum

Reference: patent US20160324992A1, “IDENTIFICATION AND TREATMENT OF VULNERABLE PLAQUES” (OTTAWA HEART INSTITUTE RESEARCH CORPORATION, priority 2015, published 2016)
